# Results: PubChem BioAssay (NCI)
#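 Following 48 hours of exposure in 96-well plates, responses at five concentrations were used to interpolate endpoints linearly. Definition used: TGI = concentration required for complete inhibition of growth.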
# Key:
# Test in all cases: NCI-60 cell line screen, 48 h
# SNB-75 CNS = tested on: SNB-75 CNS
# IGROV1 ovarian = tested on: IGROV1 ovarian
# CAKI-1 renal = tested on: CAKI-1 renal
# SF-295 CNS = tested on: SF-295 CNS
# U251 CNS = tested on: U251 CNS
# HT29 colon = tested on: HT29 colon
# 786-0 renal = tested on: 786-0 renal
# HCC-2998 colon = tested on: HCC-2998 colon
# OVCAR-8 ovarian = tested on: OVCAR-8 ovarian
# MALME-3M melanoma = tested on: MALME-3M melanoma
# EKVX NSCLC = tested on: EKVX NSCLC
# SF-539 CNS = tested on: SF-539 CNS
# HCT-116 colon = tested on: HCT-116 colon
# MDA-MB-231 breast = tested on: MDA-MB-231 breast
# KM12 colon = tested on: KM12 colon
# NCI-H522 lung = tested on: NCI-H522 lung
# TK-10 renal = tested on: TK-10 renal
# BT-549 breast = tested on: BT-549 breast
# RXF 393 renal = tested on: RXF 393 renal
# UACC-62 melanoma = tested on: UACC-62 melanoma
# PC-3 prostate = tested on: PC-3 prostate
# MOLT-4 leukemia = tested on: MOLT-4 leukemia
# OVCAR-4 ovarian = tested on: OVCAR-4 ovarian
# NCI/ADR-RES ovarian = tested on: NCI/ADR-RES ovarian
# T-47D breast = tested on: T-47D breast
# MCF7 breast = tested on: MCF7 breast
# CCRF-CEM leukemia = tested on: CCRF-CEM leukemia
# SW-620 colon = tested on: SW-620 colon
# K-562 leukemia = tested on: K-562 leukemia
# NCI-H23 lung = tested on: NCI-H23 lung
# SF-268 CNS = tested on: SF-268 CNS
# UACC-257 melanoma = tested on: UACC-257 melanoma
# COLO 205 colon = tested on: COLO 205 colon
# LOX IMVI melanoma = tested on: LOX IMVI melanoma
# SNB-19 CNS = tested on: SNB-19 CNS
# MDA-MB-435 = tested on: MDA-MB-435
# NCI-H460 lung = tested on: NCI-H460 lung
# HL-60(TB) leukemia = tested on: HL-60(TB) leukemia
# OVCAR-5 ovarian = tested on: OVCAR-5 ovarian
# M14 melanoma = tested on: M14 melanoma
# UO-31 renal = tested on: UO-31 renal
# HS 578T breast = tested on: HS 578T breast
# MDA-N = tested on: MDA-N
# DU-145 prostate = tested on: DU-145 prostate
# HCT-15 colon = tested on: HCT-15 colon
# HOP-62 NSCLC = tested on: HOP-62 NSCLC
# SK-MEL-5 melanoma = tested on: SK-MEL-5 melanoma
# HOP-92 NSCLC = tested on: HOP-92 NSCLC
# SK-OV-3 ovarian = tested on: SK-OV-3 ovarian
# OVCAR-3 ovarian = tested on: OVCAR-3 ovarian
# NCI-H226 lung = tested on: NCI-H226 lung
# SK-MEL-2 melanoma = tested on: SK-MEL-2 melanoma
# ACHN renal = tested on: ACHN renal
# SN12C renal = tested on: SN12C renal
# A498 renal = tested on: A498 renal
# RPMI-8226 leukemia = tested on: RPMI-8226 leukemia
# A549 NSCLC = tested on: A549 NSCLC
# SK-MEL-28 melanoma = tested on: SK-MEL-28 melanoma
smiles,measurement,setting,value
COc1cc([C@@H]2c3cc4c(cc3[C@@H](OC3OC5COC(C)OC5C(OC(=O)CN5CCN(C)CC5)C3OC(=O)CN3CCN(C)CC3)C3COC(=O)[C@@H]32)OCO4)cc(OC)c1OC(=O)CN1CCN(C)CC1 (stereo not given in full),TGI,SNB-75 CNS,84.9 µM
same,TGI,IGROV1 ovarian,> 100 µM
same,TGI,CAKI-1 renal,> 100 µM
same,TGI,SF-295 CNS,> 100 µM
same,TGI,U251 CNS,> 100 µM
same,TGI,HT29 colon,> 100 µM
same,TGI,786-0 renal,52.8 µM
same,TGI,HCC-2998 colon,> 100 µM
same,TGI,OVCAR-8 ovarian,> 100 µM
same,TGI,MALME-3M melanoma,> 100 µM
same,TGI,EKVX NSCLC,> 100 µM
same,TGI,SF-539 CNS,73.4 µM
same,TGI,HCT-116 colon,> 100 µM
same,TGI,MDA-MB-231 breast,> 100 µM
same,TGI,KM12 colon,> 100 µM
same,TGI,NCI-H522 lung,> 100 µM
same,TGI,TK-10 renal,> 100 µM
same,TGI,BT-549 breast,> 100 µM
same,TGI,RXF 393 renal,> 100 µM
same,TGI,UACC-62 melanoma,> 100 µM
same,TGI,PC-3 prostate,> 100 µM
same,TGI,MOLT-4 leukemia,42.1 µM
same,TGI,OVCAR-4 ovarian,> 100 µM
same,TGI,NCI/ADR-RES ovarian,> 100 µM
same,TGI,T-47D breast,> 100 µM
same,TGI,MCF7 breast,> 100 µM
same,TGI,CCRF-CEM leukemia,46.6 µM
same,TGI,SW-620 colon,> 100 µM
same,TGI,K-562 leukemia,> 100 µM
same,TGI,NCI-H23 lung,> 100 µM
same,TGI,SF-268 CNS,> 100 µM
same,TGI,UACC-257 melanoma,> 100 µM
same,TGI,COLO 205 colon,> 100 µM
same,TGI,LOX IMVI melanoma,> 100 µM
same,TGI,SNB-19 CNS,> 100 µM
same,TGI,MDA-MB-435,> 100 µM
same,TGI,NCI-H460 lung,> 100 µM
same,TGI,HL-60(TB) leukemia,42.6 µM
same,TGI,OVCAR-5 ovarian,> 100 µM
same,TGI,M14 melanoma,> 100 µM
same,TGI,UO-31 renal,> 100 µM
same,TGI,HS 578T breast,> 100 µM
same,TGI,MDA-N,> 100 µM
same,TGI,DU-145 prostate,> 100 µM
same,TGI,HCT-15 colon,> 100 µM
same,TGI,HOP-62 NSCLC,> 100 µM
same,TGI,SK-MEL-5 melanoma,> 100 µM
same,TGI,HOP-92 NSCLC,> 100 µM
same,TGI,SK-OV-3 ovarian,> 100 µM
same,TGI,OVCAR-3 ovarian,> 100 µM
same,TGI,NCI-H226 lung,> 100 µM
same,TGI,SK-MEL-2 melanoma,> 100 µM
same,TGI,ACHN renal,> 100 µM
same,TGI,SN12C renal,> 100 µM
CC(=O)C1=C(C)N2C(=NC3=C(CCc4ccccc43)C2c2cccc(Br)c2)S1 (stereo not given),TGI,SNB-75 CNS,> 100 µM
same,TGI,IGROV1 ovarian,> 100 µM
same,TGI,A498 renal,> 100 µM
same,TGI,SF-295 CNS,> 100 µM
same,TGI,U251 CNS,> 100 µM
same,TGI,HT29 colon,> 100 µM
same,TGI,786-0 renal,> 100 µM
same,TGI,HCC-2998 colon,> 100 µM
same,TGI,OVCAR-8 ovarian,> 100 µM
same,TGI,EKVX NSCLC,> 100 µM
same,TGI,SF-539 CNS,> 100 µM
same,TGI,HCT-116 colon,> 100 µM
same,TGI,MDA-MB-231 breast,> 100 µM
same,TGI,KM12 colon,> 100 µM
same,TGI,BT-549 breast,> 100 µM
same,TGI,RPMI-8226 leukemia,53.5 µM
same,TGI,RXF 393 renal,> 100 µM
same,TGI,UACC-62 melanoma,> 100 µM
same,TGI,PC-3 prostate,> 100 µM
same,TGI,OVCAR-4 ovarian,> 100 µM
same,TGI,NCI/ADR-RES ovarian,> 100 µM
same,TGI,T-47D breast,> 100 µM
same,TGI,MCF7 breast,> 100 µM
same,TGI,A549 NSCLC,> 100 µM
same,TGI,CCRF-CEM leukemia,> 100 µM
same,TGI,SW-620 colon,> 100 µM
same,TGI,NCI-H23 lung,> 100 µM
same,TGI,SF-268 CNS,> 100 µM
same,TGI,UACC-257 melanoma,> 100 µM
same,TGI,COLO 205 colon,> 100 µM
same,TGI,LOX IMVI melanoma,> 100 µM
same,TGI,SNB-19 CNS,> 100 µM
same,TGI,SK-MEL-28 melanoma,> 100 µM
same,TGI,MDA-MB-435,> 100 µM
same,TGI,HL-60(TB) leukemia,> 100 µM
same,TGI,OVCAR-5 ovarian,> 100 µM
same,TGI,M14 melanoma,> 100 µM
same,TGI,UO-31 renal,> 100 µM
same,TGI,HS 578T breast,> 100 µM
same,TGI,MDA-N,> 100 µM
same,TGI,DU-145 prostate,> 100 µM
same,TGI,HCT-15 colon,> 100 µM
same,TGI,HOP-62 NSCLC,> 100 µM
same,TGI,SK-MEL-5 melanoma,> 100 µM
same,TGI,HOP-92 NSCLC,> 100 µM
same,TGI,SK-OV-3 ovarian,> 100 µM
same,TGI,OVCAR-3 ovarian,> 100 µM
same,TGI,NCI-H226 lung,> 100 µM
same,TGI,SK-MEL-2 melanoma,> 100 µM
same,TGI,ACHN renal,> 100 µM
same,TGI,SN12C renal,> 100 µM
